Measurements: patent publication US20260042764A1, “COMPOSITIONS AND METHODS FOR INHIBITION OF KRAS” (TheRas, Inc., priority 2022, published 2026)

Experiments:
[1] = molecular target: T1, Avi-KRAS G12C (2-169) GTP/RAF1 RBD-3xFLAG (51-131) (Homo sapiens, UniProt P01116, G12C); experiment: Raf1-KRAS G12C-GTP disruption HTRF assay (Biological Example 3); format: binding; details: KRAS G12C, GTP-loaded
T1 construct: Avi-KRAS G12C (2-169)
Outline: (§1)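 50 nM Avi-KRAS (2-169) GTP/RAF1 RBD complex; 75 nM RBD-Avi; pH 7.5 Tris buffer, 10% DMSO; cpd 30 μM top, 3x, 10 pts; 1 h RT, 700 rpm; HTRF, % of DMSO.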

[2] = molecular target: T2, Avi-KRAS G12V (2-169) GTP/RAF1 RBD-3xFLAG (51-131) (Homo sapiens, UniProt P01116, G12V); experiment: Raf1-KRAS G12V-GTP disruption HTRF assay (Biological Example 3); format: binding; details: KRAS G12V, GTP-loaded
T2 construct: Avi-KRAS G12V (2-169)
T2 sequence (P01116 2-169 isoform P01116-2 G12V): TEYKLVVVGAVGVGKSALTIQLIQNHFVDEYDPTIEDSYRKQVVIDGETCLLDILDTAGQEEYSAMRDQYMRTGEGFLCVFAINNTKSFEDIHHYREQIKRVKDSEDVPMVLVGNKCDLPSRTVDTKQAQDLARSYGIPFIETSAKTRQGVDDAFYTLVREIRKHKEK
Outline: as §1

GP2d cells (KRAS G12D) = experiment: Cell-based pERK HTRF assay in GP2d cell (Biological Example 2); details: GP2d (KRAS G12D) cells
Outline: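 Phospho-ERK in lysed cells was detected by HTRF using Eu cryptate and d2 antibodies, read between 4 and 24 h at room temperature. Prior to lysis, KRAS G12D GP2d cells, seeded the day before in DMEM with 10% FBS, were exposed to compounds for 60 min. Compounds were tested as 9-point half-log curves from 1 μM or 100 nM top, with 0.25% DMSO.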

[3] = molecular target: T3, Avi-KRAS WT (2-169) GTP/RAF1 RBD-3xFLAG (51-131) (Homo sapiens, UniProt P01116); experiment: Raf1-KRAS WT-GTP disruption HTRF assay (Biological Example 3); format: binding; details: KRAS WT, GTP-loaded
T3 construct: Avi-KRAS WT (2-169)
T3 sequence (P01116 2-169 isoform P01116-2): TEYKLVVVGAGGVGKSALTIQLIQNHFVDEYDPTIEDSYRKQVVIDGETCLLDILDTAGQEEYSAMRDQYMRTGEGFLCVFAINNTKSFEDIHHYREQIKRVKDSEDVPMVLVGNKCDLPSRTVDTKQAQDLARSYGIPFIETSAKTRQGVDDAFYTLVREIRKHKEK
Outline: as §1

SW620 cells (KRAS G12V) = experiment: Cell-based pERK HTRF assay in SW620 cell (Biological Example 4)
Outline: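 In SW620 cells grown in RPMI with 10% FBS, a 4 h compound treatment (0.25% DMSO, 9-point curve from 1 μM) preceded lysis. Phospho-ERK levels were then read by time-resolved FRET at 615 nm emission.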

[4] = molecular target: T4, Avi-KRAS G12D (2-169) GTP/RAF1 RBD-3xFLAG (51-131) (Homo sapiens, UniProt P01116, G12D); experiment: Raf1-KRAS G12D-GTP disruption HTRF assay (Biological Example 3); format: binding; details: KRAS G12D, GTP-loaded
T4 construct: Avi-KRAS G12D (2-169)
T4 sequence (P01116 2-169 isoform P01116-2 G12D): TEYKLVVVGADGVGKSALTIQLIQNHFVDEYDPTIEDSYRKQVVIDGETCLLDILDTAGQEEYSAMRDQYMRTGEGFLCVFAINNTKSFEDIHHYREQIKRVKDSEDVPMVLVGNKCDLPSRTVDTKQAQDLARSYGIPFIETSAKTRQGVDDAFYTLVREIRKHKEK
Outline: as §1

[5] = Homo sapiens, SW-620, SW620 (KRAS G12V) cells

T1 sequence (P01116 2-169 isoform P01116-2 G12C): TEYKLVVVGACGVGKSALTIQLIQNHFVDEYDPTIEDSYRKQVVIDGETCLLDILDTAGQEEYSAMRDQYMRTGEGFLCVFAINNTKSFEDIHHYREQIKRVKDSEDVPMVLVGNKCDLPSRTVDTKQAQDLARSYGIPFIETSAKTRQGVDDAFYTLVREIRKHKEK

| IC50 [1] [nM] | IC50 [2] [nM] | IC50 (GP2d cells (KRAS G12D); GP2d) [nM] | IC50 [3] [nM] | IC50 (SW620 cells (KRAS G12V); [5]) [nM] | IC50 [4] [nM] | IC50 (GP2d cells (KRAS G12D)) [nM] | IC50 (SW620 cells (KRAS G12V); SW620 (KRAS G12V) cells) [nM] | Structure (SMILES) |
| --- | --- | --- | --- | --- | --- | --- | --- | --- |
| 1000 to 10000 | 1000 to 10000 | < 100 | 100 to 1000 | < 100 | 100 to 1000 | – | – | CCN(c1nc(OC[C@@]23CCCN2C[C@H](F)C3)nc2c(F)c(-c3ccc(F)c4sc(N)c(C#N)c34)c(C(F)(F)F)cc12)[C@H]1CC[C@H](C(=O)N(C)C)C1 (atropisomer, axis not shown) [Compound 660] |
| ≤ 100 | ≤ 100 | < 100 | 100 to 1000 | < 100 | 100 to 1000 | – | – | CCN(c1nc(OC[C@@]23CCCN2C[C@H](F)C3)nc2c(F)c(-c3ccc(F)c4sc(N)c(C#N)c34)c(C(F)(F)F)cc12)[C@H]1C[C@H](C)N(C(=O)C2C[C@H]2F)C1 (stereo partly drawn) [Compound 884] |
| 100 to 1000 | 100 to 1000 | < 100 | 100 to 1000 | < 100 | 100 to 1000 | – | – | CCN(c1nc(OC[C@@]23CCCN2C[C@H](F)C3)nc2c(F)c(-c3ccc(F)c4sc(N)c(C#N)c34)c(C(F)(F)F)cc12)[C@H]1C[C@H](C)N(C(=O)[C@@H]2C[C@@H]2F)C1 (atropisomer, axis not shown) [Compound 841] |
| 1000 to 10000 | 1000 to 10000 | < 100 | 1000 to 10000 | < 100 | 100 to 1000 | – | – | CCN(c1nc(OC[C@@]23CCCN2C[C@H](F)C3)nc2c(F)c(-c3ccc(F)c4sc(N)c(C#N)c34)c(C(F)(F)F)cc12)[C@H]1C[C@H]2CN(C(C)(C)C)C(=O)N2C1 (atropisomer, axis not shown) [Compound 936] |
| 1000 to 10000 | 100 to 1000 | < 100 | 1000 to 10000 | < 100 | 100 to 1000 | – | – | CN(Cc1cncnc1)c1nc(OC[C@@]23CCCN2C[C@H](F)C3)nc2c(F)c(-c3ccc(F)c4sc(N)c(C#N)c34)c(C(F)(F)F)cc12 (atropisomer, axis not shown) [Compound 898] |
| 100 to 1000 | 100 to 1000 | < 100 | 100 to 1000 | < 100 | 100 to 1000 | – | – | CCN(c1nc(OC[C@@]23CCCN2C[C@H](F)C3)nc2c(F)c(-c3ccc(F)c4sc(N)c(C#N)c34)c(C(F)(F)F)cc12)[C@H]1CCN(C(=O)C2C[C@@H]2F)[C@@H]1C (stereo partly drawn) [Compound 883] |
| 100 to 1000 | 100 to 1000 | < 100 | 100 to 1000 | < 100 | 100 to 1000 | – | – | [2H][C@]1(N(CC)c2nc(OC[C@@]34CCCN3C[C@H](F)C4)nc3c(F)c(-c4ccc(F)c5sc(N)c(C#N)c45)c(C(F)(F)F)cc23)CCN(C(=O)C(C)C)C1 (atropisomer, axis not shown) [Compound 860] |
| 100 to 1000 | 100 to 1000 | < 100 | 1000 to 10000 | < 100 | 100 to 1000 | – | – | CCN(c1nc(OC[C@@]23CCCN2C[C@H](F)C3)nc2c(F)c(-c3ccc(F)c4sc(N)c(C#N)c34)c(C(F)(F)F)cc12)[C@H]1CCN(C(=O)c2cnc(Cl)s2)C1 (atropisomer, axis not shown) [Compound 905] |
| 100 to 1000 | 100 to 1000 | < 100 | 100 to 1000 | < 100 | 100 to 1000 | – | – | CCN(c1nc(OC[C@@]23CCCN2C[C@H](F)C3)nc2c(F)c(-c3ccc(F)c4sc(N)c(C#N)c34)c(C(F)(F)F)cc12)[C@@H]1CN2C(=O)N(C)C[C@]2(C)C1 (atropisomer, axis not shown) [Compound 858] |
| 1000 to 10000 | 1000 to 10000 | < 100 | 1000 to 10000 | < 100 | 1000 to 10000 | – | – | C[C@H](c1cccnc1)N(C)c1nc(OC[C@@]23CCCN2C[C@H](F)C3)nc2c(F)c(-c3ccc(F)c4sc(N)c(C#N)c34)c(C(F)(F)F)cc12 (atropisomer, axis not shown; (aS)) [Compound 904, 2-amino-7-fluoro-4-((S)-8-fluoro-2-(((2R,7aS)-2-fluorotetrahydro-1H-pyrrolizin-7a(5H)-yl)methoxy)-4-(methyl((R)-1-(pyridin-3-yl)ethyl)amino)-6-(trifluoromethyl)quinazolin-7-yl)benzo[b]thiophene-3-carbonitrile] |
| 100 to 1000 | 100 to 1000 | < 100 | 100 to 1000 | < 100 | 100 to 1000 | – | – | CCN(c1nc(OC[C@@]23CCCN2C[C@H](F)C3)nc2c(F)c(-c3ccc(F)c4sc(N)c(C#N)c34)c(C(F)(F)F)cc12)[C@H]1CCN(C(=O)C2CC2(F)F)[C@@H]1C (stereo partly drawn) [Compound 888] |
| 100 to 1000 | 100 to 1000 | < 100 | 100 to 1000 | < 100 | 100 to 1000 | – | – | CCN(c1nc(OC[C@@]23CCCN2C[C@H](F)C3)nc2c(F)c(-c3ccc(F)c4sc(N)c(C#N)c34)c(C(F)(F)F)cc12)[C@H]1CCN(C(=O)c2nccs2)C1 (atropisomer, axis not shown) [Compound 927] |
| 100 to 1000 | 100 to 1000 | < 100 | 100 to 1000 | < 100 | 100 to 1000 | – | – | CCN(c1nc(OC[C@@]23CCCN2C[C@H](F)C3)nc2c(F)c(-c3ccc(F)c4sc(N)c(C#N)c34)c(C(F)(F)F)cc12)[C@H]1CCN(C(=O)N(C)C)[C@@H]1COC (atropisomer, axis not shown) [Compound 921] |
| 100 to 1000 | 100 to 1000 | < 100 | 100 to 1000 | < 100 | 100 to 1000 | – | – | CCN(c1nc(OC[C@@]23CCCN2C[C@H](F)C3)nc2c(F)c(-c3ccc(F)c4sc(N)c(C#N)c34)c(C(F)(F)F)cc12)[C@H]1CCN(C(=O)O[C@@H]2CCCOC2)C1 (atropisomer, axis not shown) [Compound 796] |
| 100 to 1000 | ≤ 100 | < 100 | 100 to 1000 | < 100 | 100 to 1000 | – | – | CCN(c1nc(OC[C@@]23CCCN2C[C@H](F)C3)nc2c(F)c(-c3ccc(F)c4sc(N)c(C#N)c34)c(C(F)(F)F)cc12)[C@H]1C[C@H](C)N(C(=O)c2cocn2)C1 (atropisomer, axis not shown) [Compound 914] |
| 1000 to 10000 | > 10000 | – | > 10000 | – | 1000 to 10000 | < 100 | 100 to 1000 | CCN(c1nc(OC[C@@]23CCCN2C[C@H](F)C3)nc2c(F)c(-c3ccc(F)c4sc(N)c(C#N)c34)c(C(F)(F)F)cc12)C1CCN(C(=O)OC)C1 (stereo partly drawn) [Compound 947] |
| 100 to 1000 | 100 to 1000 | < 100 | 100 to 1000 | < 100 | 100 to 1000 | – | – | CCN(c1nc(OC[C@@]23CCCN2C[C@H](F)C3)nc2c(F)c(-c3ccc(F)c4sc(N)c(C#N)c34)c(C(F)(F)F)cc12)[C@H]1C[C@H](COC)N(C(=O)[C@@H]2CCO2)C1 (atropisomer, axis not shown) [Compound 853] |
| 100 to 1000 | 100 to 1000 | < 100 | 1000 to 10000 | < 100 | 100 to 1000 | – | – | CCN(c1nc(OC[C@@]23CCCN2C[C@H](F)C3)nc2c(F)c(-c3ccc(F)c4sc(N)c(C#N)c34)c(C(F)(F)F)cc12)[C@H]1CCN(C(=O)c2ccc(C)s2)C1 (atropisomer, axis not shown) [Compound 911] |
| 100 to 1000 | 100 to 1000 | < 100 | 100 to 1000 | < 100 | 100 to 1000 | – | – | CCN(c1nc(OC[C@@]23CCCN2C[C@H](F)C3)nc2c(F)c(-c3ccc(F)c4sc(N)c(C#N)c34)c(C(F)(F)F)cc12)[C@H]1C[C@H](COC)N(C(=O)[C@@H]2C[C@@H]2F)C1 (atropisomer, axis not shown) [Compound 869] |
| 100 to 1000 | 100 to 1000 | < 100 | 100 to 1000 | < 100 | 100 to 1000 | – | – | CCN(c1nc(OC[C@@]23CCCN2C[C@H](F)C3)nc2c(F)c(-c3ccc(F)c4sc(N)c(C#N)c34)c(C(F)(F)F)cc12)[C@H]1CCN(C(=O)c2ncc(C)s2)C1 (atropisomer, axis not shown) [Compound 919] |
| 100 to 1000 | 100 to 1000 | < 100 | 1000 to 10000 | < 100 | 100 to 1000 | – | – | CCN(c1nc(OC[C@@]23CCCN2C[C@H](F)C3)nc2c(F)c(-c3ccc(F)c4sc(N)c(C#N)c34)c(C(F)(F)F)cc12)[C@H]1CCN(C(=O)N2CC3C(C2)C3(C)C)C1 (stereo partly drawn) [Compound 817] |
